Where two headings read alike, the source gives them in different places.
Target: T1, hT1R2/hT1R3 sweet receptor expressed in HEK293 cell line (Homo sapiens, UniProt Q7RTX0+Q8TE23)
T1 construct: expressed in transfected cells; host or cells: HEK293 derivative stably expressing Gα15 and hT1R2/hT1R3, clone S-9
T1 sequence (Q8TE23 20-839): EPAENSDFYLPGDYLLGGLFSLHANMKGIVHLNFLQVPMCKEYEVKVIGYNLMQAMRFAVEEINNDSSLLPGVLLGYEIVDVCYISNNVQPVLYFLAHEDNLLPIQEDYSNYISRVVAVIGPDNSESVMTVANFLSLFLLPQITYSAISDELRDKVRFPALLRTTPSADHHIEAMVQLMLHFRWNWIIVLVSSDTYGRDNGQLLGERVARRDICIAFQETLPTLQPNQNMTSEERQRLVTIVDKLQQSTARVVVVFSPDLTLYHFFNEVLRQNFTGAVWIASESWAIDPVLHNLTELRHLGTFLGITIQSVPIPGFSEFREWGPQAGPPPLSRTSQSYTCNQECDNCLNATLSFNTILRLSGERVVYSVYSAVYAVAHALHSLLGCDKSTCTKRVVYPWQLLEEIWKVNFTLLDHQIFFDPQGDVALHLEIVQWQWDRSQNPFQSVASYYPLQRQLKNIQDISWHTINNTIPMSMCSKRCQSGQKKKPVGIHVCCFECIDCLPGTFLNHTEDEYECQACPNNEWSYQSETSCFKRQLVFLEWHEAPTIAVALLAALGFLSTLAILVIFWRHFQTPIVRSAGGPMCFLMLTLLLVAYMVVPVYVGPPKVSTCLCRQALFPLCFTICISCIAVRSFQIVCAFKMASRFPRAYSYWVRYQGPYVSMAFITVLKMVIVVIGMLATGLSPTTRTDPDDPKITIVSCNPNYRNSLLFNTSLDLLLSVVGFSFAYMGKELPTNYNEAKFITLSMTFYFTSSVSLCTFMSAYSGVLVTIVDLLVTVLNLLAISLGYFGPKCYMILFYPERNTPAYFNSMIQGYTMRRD
T1 sequence (Q7RTX0 21-852): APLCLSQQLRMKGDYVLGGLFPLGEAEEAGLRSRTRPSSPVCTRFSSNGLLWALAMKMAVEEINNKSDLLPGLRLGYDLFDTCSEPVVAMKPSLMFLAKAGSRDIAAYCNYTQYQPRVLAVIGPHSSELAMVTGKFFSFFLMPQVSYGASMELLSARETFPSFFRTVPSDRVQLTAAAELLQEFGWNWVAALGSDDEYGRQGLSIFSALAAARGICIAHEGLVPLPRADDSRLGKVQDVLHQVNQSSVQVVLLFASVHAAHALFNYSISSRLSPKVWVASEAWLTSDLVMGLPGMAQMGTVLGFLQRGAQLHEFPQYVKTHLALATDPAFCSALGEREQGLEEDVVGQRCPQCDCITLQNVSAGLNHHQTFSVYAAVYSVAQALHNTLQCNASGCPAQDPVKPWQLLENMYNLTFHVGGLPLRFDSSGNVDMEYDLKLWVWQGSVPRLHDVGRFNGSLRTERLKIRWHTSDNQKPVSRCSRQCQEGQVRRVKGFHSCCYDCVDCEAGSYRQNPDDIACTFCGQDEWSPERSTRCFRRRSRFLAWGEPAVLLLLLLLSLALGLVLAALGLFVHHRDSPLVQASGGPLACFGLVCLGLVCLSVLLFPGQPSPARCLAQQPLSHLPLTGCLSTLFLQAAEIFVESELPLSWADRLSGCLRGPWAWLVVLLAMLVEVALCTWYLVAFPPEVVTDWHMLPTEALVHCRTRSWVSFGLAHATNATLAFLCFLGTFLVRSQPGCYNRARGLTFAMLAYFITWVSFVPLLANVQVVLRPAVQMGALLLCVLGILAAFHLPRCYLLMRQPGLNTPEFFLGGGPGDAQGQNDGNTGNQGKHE
Assay: In vitro hT1R2/hT1R3-HEK293 taste receptor activation assay (FLIPR)
Assay type: cell-based
Description: An HEK293 cell line derivative (Chandrashekar et al., Cell (2000) 100:703-711) that stably expresses Gα15 and hT1R2/hT1R3 (Li et al., Proc Natl Acad Sci USA (2002) 99:4692-4696), see also PCT Publication No. WO 03/001876 A2) was used to identify compounds with sweet taste enhancing properties.
Compounds covered in this document were initially selected based on their activity on the hT1R2/hT1R3-HEK293-Gα15 cell line (Li et al. vide supra). Activity was determined using an automated fluorometric imaging assay on a FLIPR instrument ([…], Molecular Devices, Sunnyvale, Calif.) (designated FLIPR assay). Cells from one clone (designated S-9 cells) were seeded into 384-well plates (at approximately 50,000 cells per well) in a medium containing DMEM Low Glucose (Invitrogen, Carlsbad, Calif.), 10% dialyzed fetal bovine serum (Invitrogen, Carlsbad, Calif.), 100 Units/ml Penicillin G, and 100 μg/ml Streptomycin (Invitrogen, Carlsbad, Calif.) (Li et al. vide supra) see also PCT Publication No. WO 03/001876 A2). S-9 cells were grown for 24 hours at 37° C. S-9 cells were then loaded with the calcium dye Fluo-3AM (Molecular Probes, Eugene, Oreg.), 4 μM in a phosphate buffered saline (D-PBS) (Invitrogen, Carlsbad, Calif.), for 1 hour at room temperature. After replacement with 25 μl D-PBS, stimulation was performed in the FLIPR instrument and at room temperature by the addition of 25 μl D-PBS supplemented with different stimuli at concentrations corresponding to twice the desired final level. Receptor activity was quantified by determining the maximal fluorescence increases (using a 480 nm excitation and 535 nm emission) after normalization to basal fluorescence intensity measured before stimulation.
For dose-responses analysis, stimuli were presented in duplicates at 10 different concentrations ranging from 60 nM to 30 μM. Activities were normalized to the response obtained with 400 mM D-fructose, a concentration that elicits maximum receptor response. EC50s were determined using a non-linear regression algorithm (using a Senomyx, Inc. software), where the Hill slope, bottom asymptotes and top asymptotes were allow to vary. Identical results were obtained when analyzing the dose-response data using commercially available software for non-linear regression analysis such as GraphPad PRISM (San Diego, Calif.).

[1] = read-out: EC50 for activation of a hT1R2/hT1R3 sweet receptor expressed in HEK293 cell line

| EC50 [1] [nM] | EC50 (Table A, read-out: SWEET EC50) [nM] | SMILES |
| --- | --- | --- |
| – | 1660 | CCC[C@@H](CO)NC(=O)C(C)(C)c1ccc(-c2cncc(C#N)c2)cc1 [Compound A69] |
| – | 670 | CC(C)CNC(=O)C(C)(C)c1ccc(-c2cccc(C#N)c2CO)cc1 [Compound A80] |
| – | 1100 | CC[C@H](CO)NC(=O)C(C)(C)c1ccc(-c2ccccc2)cc1 [Compound A60] |
| – | 1250 | CCC(CO)NC(=O)C(C)(C)c1ccc(-c2ccoc2)cc1 (stereo not shown) [Compound A77] |
| – | 110 | CCC(C)CNC(=O)C(C)(C)c1ccc(-c2cncc(C#N)c2)cc1 (stereo not shown) [Compound A83] |
| – | 1170 | CC(=O)c1ccccc1-c1ccc(C(C)(C)C(=O)NCC(C)C)cc1 [Compound A24] |
| – | 1710 | CC(C)CNC(=O)C(C)(C)c1ccc(-c2ccccc2)c(F)c1 [Compound A3] |
| – | 6000 | CC(C)CNC(=O)C(C)(C)c1ccc(-c2cccc(C(C)C)c2)cc1 [Compound A16] |
| – | 470 | CCCNC(=O)C(C)(C)c1ccc(-c2cncc(C#N)n2)cc1 [Compound A52] |
| – | 670 | CCCNC(=O)C(C)(C)c1ccc(-c2cccc(COC)c2)cc1 [Compound A78] |
| – | 1290 | CC[C@H](C)NC(=O)C(C)(C)c1ccc(-c2cncc(COC)c2)cc1 [Compound A64] |
| – | 130 | CC(C)(C(=O)NC1CCCC1)c1ccc(-c2cncc(C#N)n2)cc1 [Compound A43] |
| – | 50 | CCC(C)CNC(=O)C(C)(C)c1ccc(-c2cncc(C#N)n2)cc1 (stereo not shown) [Compound A41] |
| – | 5400 | CC(C)CNC(=O)C(C)(C)c1ccc(-c2cscn2)cc1 [Compound A32] |
| – | 3520 | CC(C(=O)NC1CC1)c1ccc(-c2ccccc2)c(F)c1 (stereo not shown) [Compound A1] |
| – | 960 | COc1cc(C(C)(C)C(=O)NCC(C)C)ccc1-c1ccccc1 [Compound A76] |
| – | 1280 | CC(C)CNC(=O)C(C)(C)c1ccc(-c2ccccc2)cc1 [Compound A36] |
| – | 2020 | CC(C)CNC(=O)C(C)(C)c1ccc(-c2cccc3[nH]ccc23)cc1 [Compound A26] |
| – | 670 | CC(C)CNC(=O)C(C)(C)c1ccc(-c2cccc(C#N)n2)cc1 [Compound A81] |
| – | 5600 | CCCOc1cccc(-c2ccc(C(C)(C)C(=O)NCC(C)C)cc2)c1 [Compound A17] |
| – | 1490 | CC(C)CNC(=O)C(C)(C)c1ccc(-c2cccc(S(C)(=O)=O)c2)cc1 [Compound A38] |
| – | 620 | CCC(CC)CNC(=O)C(C)(C)c1ccc(-c2cncc(C#N)c2)cc1 [Compound A91] |
| – | 940 | CC(C)CCNC(=O)C(C)(C)c1ccc(-c2cncc(C#N)c2)cc1 [Compound A21] |
| – | 680 | CC[C@@H](CO)NC(=O)C(C)(C)c1ccc(-c2cncc(C#N)c2)cc1 [Compound A75] |
| – | 4500 | CCC(COC)NC(=O)C(C)c1ccc(-c2ccccc2)c(F)c1 (stereo not shown) [Compound A12] |

The next lines start with the compound.

| SMILES | EC50 [1] [nM] | EC50 (Table A, read-out: SWEET EC50) [nM] |
| --- | --- | --- |
| CCC(CC)NC(=O)C(C)(C)c1ccc(-c2cncnc2)cc1 [Compound 52, 2-methyl-N-(pentan-3-yl)-2-(4-(pyrimidin-5-yl)phenyl)propanamide] | 380 | – |
| CC(C)CNC(=O)C(C)(C)c1ccc(-c2cncc(C#N)c2)nc1 [Compound 40, 2-(5′-cyano-2,3′-bipyridin-5-yl)-N-isobutyl-2-methylpropanamide] | 2190 | – |
| CCOC(=O)c1cccc(-c2ccc(C(C)(C)C(=O)NCC(C)C)cc2)c1 [Compound 16, Ethyl 4′-(1-(isobutylamino)-2-methyl-1-oxopropan-2-yl)biphenyl-3-carboxylate] | 2600 | – |
| CC(C)CNC(=O)C(C)(C)c1ccc(-c2cncc(C#N)c2)cn1 [Compound 42, 2-(5′-cyano-3,3′-bipyridin-6-yl)-N-isobutyl-2-methylpropanamide] | 10600 | – |
| CC(NC(=O)C(C)(C)c1ccc(-c2cncc(C#N)n2)cc1)c1ccco1 (stereo not shown) [Compound 48, 2-(4-(6-cyanopyrazin-2-yl)phenyl)-N-(1-(furan-2-yl)ethyl)-2-methylpropanamide] | 190 | – |
| CC(C)CNC(=O)C(C)(C)c1ccc(-c2ccccc2C=O)cc1 [Compound 37, 2-(2′-formylbiphenyl-4-yl)-N-isobutyl-2-methylpropanamide] | 810 | – |
| CC(C)CNC(=O)C(C)(C)c1ccc(-n2cccc2)cc1 [Compound 28, 2-(4-(1H-pyrrol-1-yl)phenyl)-N-isobutyl-2-methylpropanamide] | 350 | – |
| Cc1cc(C(C)(C)C(=O)NCC(C)C)ccc1-c1ccccc1 [Compound 50, N-isobutyl-2-methyl-2-(2-methylbiphenyl-4-yl)propanamide] | 1420 | – |
| CC(C)CNC(=O)C(C)(C)c1cnn(-c2ccccc2)c1 [Compound 31, N-isobutyl-2-methyl-2-(1-phenyl-1H-pyrazol-4-yl)propanamide] | 14900 | – |
| CC(C)CNC(=O)C(C)c1ccc(-c2ccccc2)c(F)c1 (stereo not shown) [Compound 3, 2-(2-fluorobiphenyl-4-yl)-N-isobutylpropanamide] | 2800 | – |
| Cc1cscc1-c1ccc(C(C)(C)C(=O)NCC(C)C)cc1O [Compound 35, 2-(3-hydroxy-4-(4-methylthiophen-3-yl)phenyl)-N-isobutyl-2-methylpropanamide] | 1040 | – |
| CCOCc1cncc(-c2ccc(C(C)(C)C(=O)NCC(C)C)cc2)c1 [Compound 26, 2-(4-(5-(ethoxymethyl)pyridin-3-yl)phenyl)-N-isobutyl-2-methylpropanamide] | 260 | – |
| CCC(CC)NC(=O)C(C)(C)c1ccc(-c2cncc(C#N)c2)cc1 [Compound 21, 2-(4-(5-cyanopyridin-3-yl)phenyl)-2-methyl-N-(pentan-3-yl)propanamide] | 70 | – |
| CC(C)(C(=O)NCC(O)c1ccco1)c1ccc(-c2cncc(C#N)c2)cc1 (stereo not shown) [Compound 46, 2-(4-(5-cyanopyridin-3-yl)phenyl)-N-(2-(furan-2-yl)-2-hydroxyethyl)-2-methylpropanamide] | 1190 | – |
| COCc1cncc(-c2ccc(C(C)(C)C(=O)NCC(C)C)cc2)n1 [Compound 29, N-isobutyl-2-(4-(6-(methoxymethyl)pyrazin-2-yl)phenyl)-2-methylpropanamide] | 260 | – |
